Results reported in patent US20150181885A1, “METHOD FOR CONTROLLING FUNGAL DISEASES IN MUSHROOM PRODUCTION” (priority 2012, published 2015).

What was measured:
Verticillium fungicola = assay: In vitro antifungal activity assay in 96-well microtiter plates against Verticillium fungicola; format: cell-based; settings: 3 days incubation at 25° C.
Procedure: The following compositions are tested: […] Subsequently, 100 μl of a Verticillium fungicola suspension prepared in PCB medium is used to inoculate each well with 5.0×10^3 spores/ml. […] After incubation of the microtiter plates for 3 days at 25° C., the in vitro antifungal activity (%) of the individual active ingredients was assessed by calculating the reduction in mould growth observed in the presence of the active ingredient in comparison to the mould growth observed in the absence of the active ingredient. The expected antifungal activity (E in %) of the active ingredient combination was calculated according to the Colby equation (Colby, 1967): […] wherein X and Y are the observed antifungal activities (in %) of the individual active ingredients X and Y, respectively.

Trichoderma harzianum = assay: In vitro antifungal activity assay in 96-well microtiter plates against Trichoderma harzianum; format: cell-based
Procedure: Subsequently, 100 μl of a Verticillium fungicola suspension prepared in PCB medium is used to inoculate each well with 5.0×10^3 spores/ml.
After incubation of the microtiter plates for 3 days at 25° C., the in vitro antifungal activity (%) of the individual active ingredients was assessed by calculating the reduction in mould growth observed in the presence of the active ingredient in comparison to the mould growth observed in the absence of the active ingredient. The expected antifungal activity (E in %) of the active ingredient combination was calculated according to the Colby equation (Colby, 1967): […]
wherein X and Y are the observed antifungal activities (in %) of the individual active ingredients X and Y, respectively. If the observed antifungal activity (O in %) of the combination exceeds the expected antifungal activity (E in %) of the combination and the resulting synergy factor O/E is thus >1.0, the combined application of the active ingredients leads to a synergistic antifungal effect.
The experiment was conducted as described in Example 1, except for the fact that the following compositions were tested: • Control (no active ingredient) • 1.25 ppm Natamycin • 5, 10 or 15 ppm thiophanate-methyl • 1.25 ppm Natamycin+5 ppm thiophanate-methyl • 1.25 ppm Natamycin+10 ppm thiophanate-methyl • 1.25 ppm Natamycin+15 ppm thiophanate-methyl
Furthermore, Trichoderma harzianum was used for inoculation. After 3 and 5 days of incubation at 25° C., the antifungal activity (in %) of the individual and combined active ingredients was determined according to the method described in Example 1.

SMILES	Observed antifungal activity O (%) (Verticillium fungicola; Natamycin 2.5 ppm)	Observed antifungal activity O (%) (Verticillium fungicola; Thiophanate-methyl 15 ppm)	Observed antifungal activity O (%) (Verticillium fungicola; Thiophanate-methyl 20 ppm)	Observed antifungal activity O (%) (Trichoderma harzianum; Thiophanate-methyl 5 ppm, 3 days incubation at 25° C.)	Observed antifungal activity O (%) (Trichoderma harzianum; Thiophanate-methyl 10 ppm, 5 days incubation at 25° C.)	Observed antifungal activity O (%) (Trichoderma harzianum; Thiophanate-methyl 15 ppm, 5 days incubation at 25° C.)
C[C@@H]1C/C=C/C=C/C=C/C=C/[C@H](O[C@@H]2O[C@H](C)[C@@H](O)[C@H](N)[C@@H]2O)C[C@@H]2O[C@](O)(C[C@@H](O)C[C@H]3O[C@@H]3/C=C/C(=O)O1)C[C@H](O)[C@H]2C(=O)O [Natamycin, natamycin]	0	–	–	–	–	–
COC(=O)NC(=S)Nc1ccccc1NC(=S)NC(=O)OC [Thiophanate-methyl, dimethyl 4,4′-(o-phenylene)bis(3-thioallophanate)]	–	50	50	0	0	0
